Laboratory results: US20080200337A1, “Mixed herbicide compositions for paddy field” (Bayer CropScience, priority 2007, published 2008)
“And” between values parts separate entries of the source, which are not always exact repeats. Equal values may be shown once.

How the values were obtained:
Assay type in all cases: in vivo
Echinochloa [1] = assay: Weed control, flooded paddy field, treatment at 1 leaf-stage (Test Example 1); conditions: after 4 weeks
Procedure: (§1) Carrier: 5 parts by weight of acetone
(§2) Surfactant: one part by weight of benzyloxy polyglycol ether.
(§3) Above described carrier and surfactant are mixed with one part by weight of the active compound ((a) ingredient and (b) ingredient) and the resulting preparation is then diluted with water to obtain given amount of the test drug (the formulation).
(§4) In a greenhouse, seeds or tubers of Echinochloa, Scirpus juncoides Roxburgh, Monochoria vaginalis Presl, annual broad-leaved weeds (Lindernia procumbens Philcox, Lindernia dubia L. Penn., Rotala indica Koehne, Elatine triandra Schk, Ammannia multiflora Roxb.), Cyperus serotinus Rottboel and Sagittaria pygmaea Miq. were inoculated in a 500 cm^2 pot filled with paddy field soil. After 2 leaf-stage of rice were transplanted, water was poured to a depth of about 3 cm. At 1.0 leaf-stage of Echinochloa oryzicola Vasing, a prescribed, diluted solution of the formulation of each active compound and each herbicidal compound in the table was separately or simultaneously applied to the surface of water. After the treatment, the water depth of 3 cm was maintained, and herbicidal effect was examined after 4 weeks. In the assessment of the herbicidal effect and the phytotoxicity, 100% refers to complete death and 0% refers to no effect or no phytotoxicity.

[2] = system: Scirpus juncoides Roxburgh; assay: as above; conditions: after 4 weeks
Procedure: as §1, §2, §3, §4

Sagittaria pygmaea Miq. [3] = assay: as above; conditions: after 4 weeks
Procedure: as §1, §2, §3, §4

[4] = system: Cyperus serotinus Rottboel; assay: as above; conditions: after 4 weeks
Procedure: as §1, §2, §3, §4

[5] = system: annual broad-leaved weeds; assay: as above; conditions: after 4 weeks
Procedure: as §1, §2, §3, §4

[6] = system: Monochoria vaginalis Presl; assay: as above; conditions: after 4 weeks
Procedure: as §1, §2, §3, §4

transplanted rice [7] = assay: Phytotoxicity, flooded paddy field, treatment at 3 leaf-stage (Test Example 2)
Procedure: as §1, §2, §3
as §4, with “Echinochloa, Cyperus difformis L.,” for “Echinochloa,”, “3.0” for “1.0”, “Echinochloa,” for “Echinochloa oryzicola Vasing,”

Echinochloa [8] = assay: Weed control, flooded paddy field, treatment at 3 leaf-stage (Test Example 2); conditions: after 4 weeks
Procedure: as §1, §2, §3
as §4, with “Echinochloa, Cyperus difformis L.,” for “Echinochloa,”, “3.0” for “1.0”, “Echinochloa,” for “Echinochloa oryzicola Vasing,”

[9] = system: Scirpus juncoides Roxburgh; assay: as above; conditions: after 4 weeks
Procedure: as §1, §2, §3
as §4, with “Echinochloa, Cyperus difformis L.,” for “Echinochloa,”, “3.0” for “1.0”, “Echinochloa,” for “Echinochloa oryzicola Vasing,”

Sagittaria pygmaea Miq. [10] = assay: as above; conditions: after 4 weeks
Procedure: as §1, §2, §3
as §4, with “Echinochloa, Cyperus difformis L.,” for “Echinochloa,”, “3.0” for “1.0”, “Echinochloa,” for “Echinochloa oryzicola Vasing,”

[11] = system: Cyperus serotinus Rottboel; assay: as above; conditions: after 4 weeks
Procedure: as §1, §2, §3
as §4, with “Echinochloa, Cyperus difformis L.,” for “Echinochloa,”, “3.0” for “1.0”, “Echinochloa,” for “Echinochloa oryzicola Vasing,”

[12] = system: Monochoria vaginalis Presl; assay: as above; conditions: after 4 weeks
Procedure: as §1, §2, §3
as §4, with “Echinochloa, Cyperus difformis L.,” for “Echinochloa,”, “3.0” for “1.0”, “Echinochloa,” for “Echinochloa oryzicola Vasing,”

transplanted rice [13] = assay: Phytotoxicity, flooded paddy field, treatment at 1 leaf-stage (Test Example 1); conditions: treatment at 1 leaf-stage, after 4 weeks
Procedure: as §1, §2, §3, §4

[14] = system: annual broad-leaved weeds; assay: Weed control, flooded paddy field, treatment at 3 leaf-stage (Test Example 2); conditions: after 4 weeks
Procedure: as §1, §2, §3
as §4, with “Echinochloa, Cyperus difformis L.,” for “Echinochloa,”, “3.0” for “1.0”, “Echinochloa,” for “Echinochloa oryzicola Vasing,”

## CS(=O)(=O)c1ccc(C(=O)C2C(=O)CCCC2=O)c(Cl)c1COCC1CCCO1 (stereo not drawn) [(b-7), 2-{2-chloro-4-mesyl-3-[(tetrahydrofuran-2-ylmethoxy)methyl]-benzoyl}-cyclohexan-1,3-dione]
Echinochloa [1]; 200 g ai/ha
  Herbicidal effect (%) ECHSS: 95%
[2]; 200 g ai/ha
  Herbicidal effect (%) SCPSS: 95%
Sagittaria pygmaea Miq. [3]; 200 g ai/ha
  Herbicidal effect (%) SAGPY: 90%
[4]; 200 g ai/ha
  Herbicidal effect (%) CYPSEE: 90%
[5]; 200 g ai/ha
  Herbicidal effect (%) BBBBB: 90%
[6]; 200 g ai/ha
  Herbicidal effect (%) MOOVP: 90%
Transplanted rice [7]; rice, in vivo, 4 weeks
  Phytotoxicity (%) ORYSP: 0%
Echinochloa [8]; 200 g ai/ha
  Herbicidal effect (%) ECHSS: 70%
[9]; 200 g ai/ha
  Herbicidal effect (%) SCPSS: 88%
Sagittaria pygmaea Miq. [10]; 200 g ai/ha
  Herbicidal effect (%) SAGPY: 80%
[11]; 200 g ai/ha
  Herbicidal effect (%) CYPSEE: 70%
[12]; 200 g ai/ha
  Herbicidal effect (%) MOOVP: 95%
Transplanted rice [13]; 200 g ai/ha
  Phytotoxicity (%) ORYSP: 0%

## CCN(C(=O)n1nnn(-c2ccccc2Cl)c1=O)C1CCCCC1 [(b-6), fentrazamide]
Echinochloa [1]; 300 g ai/ha
  Herbicidal effect (%) ECHSS: 95%
[2]; 300 g ai/ha
  Herbicidal effect (%) SCPSS: 95%
Sagittaria pygmaea Miq. [3]; 300 g ai/ha
  Herbicidal effect (%) SAGPY: 50%
[4]; 300 g ai/ha
  Herbicidal effect (%) CYPSEE: 95%
[5]; 300 g ai/ha
  Herbicidal effect (%) BBBBB: 85%
[6]; 300 g ai/ha
  Herbicidal effect (%) MOOVP: 95%
Transplanted rice [7]; 300 g ai/ha, treatment at 3 leaf-stage, after 4 weeks
  Phytotoxicity (%) ORYSP: 0%
Echinochloa [8]; 300 g ai/ha
  Herbicidal effect (%) ECHSS: 69%
[9]; 300 g ai/ha
  Herbicidal effect (%) SCPSS: 80%
Sagittaria pygmaea Miq. [10]; 300 g ai/ha
  Herbicidal effect (%) SAGPY: 50%
[11]; 300 g ai/ha
  Herbicidal effect (%) CYPSEE: 75%
[14]; 300 g ai/ha
  Herbicidal effect (%) BBBBB: 55%
[12]; 300 g ai/ha
  Herbicidal effect (%) MOOVP: 55%
Transplanted rice [13]; 300 g ai/ha
  Phytotoxicity (%) ORYSP: 0%

## CC(C)(NC(=O)C(Br)C(C)(C)C)c1ccccc1 (stereo not drawn) [(b-2), bromobutide]
Echinochloa [1]; 750 g ai/ha
  Herbicidal effect (%) ECHSS: 100%
[2]; 750 g ai/ha
  Herbicidal effect (%) SCPSS: 90%
Sagittaria pygmaea Miq. [3]; 750 g ai/ha
  Herbicidal effect (%) SAGPY: 70%
[4]; 750 g ai/ha
  Herbicidal effect (%) CYPSEE: 70%
[5]; 750 g ai/ha
  Herbicidal effect (%) BBBBB: 50%
[6]; 750 g ai/ha
  Herbicidal effect (%) MOOVP: 80%
Transplanted rice [7]; rice, in vivo, 4 weeks
  Phytotoxicity (%) ORYSP: 0%
Echinochloa [8]; 750 g ai/ha
  Herbicidal effect (%) ECHSS: 45%
[9]; 750 g ai/ha
  Herbicidal effect (%) SCPSS: 80%
Sagittaria pygmaea Miq. [10]; 750 g ai/ha
  Herbicidal effect (%) SAGPY: 40%
[11]; 750 g ai/ha
  Herbicidal effect (%) CYPSEE: 90%
[14]; 750 g ai/ha
  Herbicidal effect (%) BBBBB: 30%
[12]; 750 g ai/ha
  Herbicidal effect (%) MOOVP: 70%
Transplanted rice [13]; 750 g ai/ha
  Phytotoxicity (%) ORYSP: 0%

## Cc1c(Cl)ccc(OC(C)C(=O)Nc2ccccc2)c1Cl (stereo not drawn) [(b-1), clomeprop]
Echinochloa [1]; 350 g ai/ha
  Herbicidal effect (%) ECHSS: 20%
[2]; 350 g ai/ha
  Herbicidal effect (%) SCPSS: 90%
Sagittaria pygmaea Miq. [3]; 350 g ai/ha
  Herbicidal effect (%) SAGPY: 90%
[4]; 350 g ai/ha
  Herbicidal effect (%) CYPSEE: 50%
[5]; 350 g ai/ha
  Herbicidal effect (%) BBBBB: 100%
[6]; 350 g ai/ha
  Herbicidal effect (%) MOOVP: 100%
Transplanted rice [7]; rice, in vivo, 4 weeks
  Phytotoxicity (%) ORYSP: 0%
Echinochloa [8]; 350 g ai/ha
  Herbicidal effect (%) ECHSS: 20%
[9]; 350 g ai/ha
  Herbicidal effect (%) SCPSS: 90%
Sagittaria pygmaea Miq. [10]; 350 g ai/ha
  Herbicidal effect (%) SAGPY: 90%
[11]; 350 g ai/ha
  Herbicidal effect (%) CYPSEE: 20%
[14]; 350 g ai/ha
  Herbicidal effect (%) BBBBB: 90%
[12]; 350 g ai/ha
  Herbicidal effect (%) MOOVP: 100%
Transplanted rice [13]; 350 g ai/ha
  Phytotoxicity (%) ORYSP: 10% and 0%

## COCc1cccc(C(O)c2nc(OC)cc(OC)n2)c1NS(=O)(=O)C(F)F (stereo not drawn) [(b-8), pyrimisulfan]
Echinochloa [1]; 50 g ai/ha
  Herbicidal effect (%) ECHSS: 95%
[2]; 50 g ai/ha
  Herbicidal effect (%) SCPSS: 95%
Sagittaria pygmaea Miq. [3]; 50 g ai/ha
  Herbicidal effect (%) SAGPY: 90%
[4]; 50 g ai/ha
  Herbicidal effect (%) CYPSEE: 95%
[5]; 50 g ai/ha
  Herbicidal effect (%) BBBBB: 95%
[6]; 50 g ai/ha
  Herbicidal effect (%) MOOVP: 95%
Transplanted rice [7]; 50 g ai/ha, treatment at 3 leaf-stage, after 4 weeks
  Phytotoxicity (%) ORYSP: 5%
Echinochloa [8]; 50 g ai/ha
  Herbicidal effect (%) ECHSS: 85%
[9]; 50 g ai/ha
  Herbicidal effect (%) SCPSS: 90%
Sagittaria pygmaea Miq. [10]; 50 g ai/ha
  Herbicidal effect (%) SAGPY: 85%
[11]; 50 g ai/ha
  Herbicidal effect (%) CYPSEE: 90%
[14]; 50 g ai/ha
  Herbicidal effect (%) BBBBB: 85%
[12]; 50 g ai/ha
  Herbicidal effect (%) MOOVP: 95%
Transplanted rice [13]; 50 g ai/ha
  Phytotoxicity (%) ORYSP: 15%
